According to article PMC4915154, “Development of background-free tame fluorescent probes for intracellular live cell imaging” (Nature Communications, 2016):

How the values were obtained:
[1] = tested on: U-2 OS and CHO cell lines; assay: Cellular retention and efflux characteristics test (before/after washing imaging, retaining ratio RR); format: cell-based, human (U-2 OS), Chinese hamster (CHO); settings: 30 min
From the text: To expedite an efficient strategy for ‘tame' probe development, we set up a system to predict cellular properties of fluorescent probes via phenotypic high-throughput screening (HTS), cheminformatics and statistical analysis (Fig. 1a). As the first step, we conducted phenotypic HTS to investigate cell permeability and nonspecific binding properties of the probes in a training set. We tested about 2,085 probes consisted of a wide range photophysical properties from numerous fluorophore cores such as BODIPY[12][13][14][15], xanthone, rosamine, cyanine[19][20] and ACEMAN[21]. Their cellular influx and efflux profiles were examined in two types of mammalian cells, U-2 OS and CHO. These cell lines were chosen due to their flexibility in genetic manipulation, adaptability to various culture conditions and versatility in wide biomedical research such as gene expression, toxicity screening, recombinant protein and live cell imaging. Each of the probes was added into live cells and cell image was taken after 30 min by ImageXpress Micro cellular imaging system (Molecular Device). The cells were then washed with fresh growth media, and after another 10 min, a second image was taken to check the completeness of probe washing out of the cell. The first and second imaging facilitated influx (before washing, BW) and efflux (after washing, AW) measurements, respectively (Supplementary Fig. 1).
To measure the influx and efflux of the probes, an automated quantitative intensity-based image analysis was then performed by Multi-Wavelength Cell Scoring analysis using MetaXpress High Content Image software. Retaining ratio (RR, per cent ratio of the average intensity of AW image over BW image) was computed to classify probes into the three phenotypic groups. For each cell in the image, the nuclei and cell region were segmented to provide approximate cellular boundaries. Fluorescence intensity was then quantified on a cell-by-cell basis by the following steps: (i) selecting the image of interest, (2) specifying the width of the stained cell area, (3) adjusting the intensity above local background for detection specificity, and (4) calculating fluorescence intensity with specified reporting parameters. Average fluorescence intensity for each BW and AW images was calculated for each probes and cell lines, and was then used as input in RR calculation (Supplementary Figs 2 and 3).
U-2 OS, a human osteosarcoma cell line, and CHO, a Chinese hamster ovary cell line, (from ATCC) were cultured in Dulbecco's modified eagle's medium (DMEM) (Invitrogen, CA, USA) supplemented with fetal bovine serum (FBS) (10%) and penicillin–streptomycin (1%). Materials used in the cell culture were purchased from Invitrogen. U-2 OS and CHO cells were seeded onto 96-well plate in growth media at 37 °C in the presence of 5% CO2 and were then allowed to attach and grow to 70–80% confluence. Library probes were dissolved in dimethylsulfoxide (DMSO) to make the 1 mM solution, and stored in −20 °C. Before HTS experiment, the growth media was aspirated and replaced by 200 μl fresh growth media containing probes in final concentration of 1 μM and nuclei dye Hoechst 33342. Plates were incubated for 30 min at 37 °C then were imaged using ImageXpress Micro cellular imaging system (Molecular Device) with × 10 objective lens. Immediately after image acquisition, the cells were washed with fresh growth media, and transferred back to a 37 °C cell incubator for further incubation. After 10 min, cells were again imaged (AW image). The first imaging step allowed influx measurement of BW image , while the second imaging step allowed out-flux measurement of AW image. Images of two regions per well were acquired with DAPI, FITC, TRITC or Texas Red filter sets according to probes' excitation and emission wavelength. Experiment was performed in duplicate. Cellular retention and efflux characteristics test for other synthesized probes were also done by using the same protocol. […]

U-2 OS cells = assay: Cell viability assay (MTS); format: cell-based, human; settings: 0-10 μM, 1-16 h
Procedure: Cell viability was assessed using MTS assay kit (Promega). 1 × 10^5 U-2 OS cells were seeded on 10 mm culture dishes; cells were stained with or without CO-1 ([…]) for 1–16 h. After incubation, the MTS reagent was added and incubated for 4 h at 37 °C. Absorbance was determined at 490 nm using SpectraMax M2 plate reader.
Supplementary Figure 18 Cell viability test for CO-1.
Cell viability was measured by MTS assay for concentration of probe at 0 μM, 0.3 μM, 1 μM, 3 μM and 10 μM in 1 hour, 4 hours and 16 hours incubation in U-2 OS cells. Absorbance was determined at 490 nm. Each absorbance value was subtracted with blank sample (blank sample = cells containing compound at respective concentration without MTS reagent). Cell viability was calculated by: (viable cells)% = (OD of treated sample/OD of untreated sample)×100. Data are presented as the means + SD obtained from triplicate experiments.
(also on this page, place not known: 25 50 75 100 hour (%) Incubation time CO-1 0 μM μM μM 0 0.3 1 3 μM 10 μM 1 4 hours 16 hours U -2 ( blank reagent) . Cell viability)
(§1) (1 picture or pasted object on this page, not shown here)

[2] = Photostability measurements; format: physicochemical; settings: 10 μM in PBS buffer pH 7.4 with 1% DMSO, intensive radiation of strong light source
Procedure: 10 μM of CO-1 solution in PBS buffer (pH 7.4) containing 1% DMSO were placed in a 96-well plates. Fluorescence measurement were recorded every 30 s interval for a total period of 12 h (Ex/Em=490/520) under a xenon flashlamp. For harsh condition experiment, photostability test was done under high intensity UV lamp (Blak Ray, 100 W, 365 nm). Plates were irradiated for 10 min up to 2.5 h at 10 cm distance.
Supplementary Figure 17 Photostability analysis of CO-1.
10 μM CO-1 solution in PBS buffer (pH 7.4) containing 1% DMSO were placed in a 96-well plates. (a) Fluorescence measurement were recorded every 30 seconds interval for a total period of 12 hours (Ex/Em = 490/520) under a xenon flashlamp. (b) Photostability test under high intensity UV lamp (Blak Ray, 100W, 365 nm). Plates were irradiated for 10 minutes up to 2.5 hours at 10 cm distance. Values are represented as means (n=3) and fitted to a non-linear regression one-phase exponential decay (GraphPad Prism 5.0)
as §1

[3] = Spectroscopic properties (absorbance, emission, extinction coefficient, quantum yield); format: physicochemical; settings: 10 μM in DMSO
Procedure: Supplementary Table 9. Spectrocopic properties and purity table for CO-1 and CO-1H.
Calculated mass, experimental mass, absorbance maximum (λabs), fluorescent emission maximum (λem), extinction coefficient (ε), quantum yield (Φ), and purity. mass m/z λabs λem ε Purity […]
Absorbance and fluorescence emission data were recorded by a Synergy 4, Biotek Inc. fluorescent plate reader at 10 μM concentration in DMSO in 96-well plates. HRMS a: found mass (M-H), b: tetramethyl BODIPY was used as standard, c: purity data was calculated on the basis of the integration in HPLC trace at 254 nm.

Photostability [2]: superior photostability
ε [3]: 66668 M⁻¹ cm⁻¹
λabs [3]: 490 nm
λem [3]: 510 nm
QY (Φ) ([3]; tetramethyl BODIPY as standard): 0.66
Structure (SMILES): Cc1cc(C)n2c1C(CCNC(=O)CCC(=O)OCC1C3CCC#CCCC31)=C1C=CC=[N+]1[B-]2(F)F (centres unmarked) [CO-1]
Cellular retention after washing (probe signal) ([1]; CHO and U-2 OS cells, 1 uM probe): leave the cells after washing
Experimentally observed group ([1]; U-2 OS and CHO cell lines, probe 1 μM, imaged before and 10 min after washing): L-group (Probes (FI(BW) >200) with rapid efflux were observed to have a RR of <5%, and thus were classified into L-group)
Cell viability / toxicity (U-2 OS cells): nontoxic and did not interfere with cell proliferation
